Legend:
Phaedon cochleariae = Phaedon cochleariae - spray test; assay type: in vivo; conditions: application rate 100 g/ha; larvae on Chinese cabbage leaf discs; after 7 days
Procedure, shortened: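 Chinese cabbage leaf discs sprayed with compound formulated in acetone/DMF and water containing 1000 ppm emulsifier; once dry, infested with mustard beetle larvae. Efficacy (% larvae killed) scored after 7 days.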

Rhipicephalus sanguineus = Rhipicephalus sanguineus - in vitro contact tests with adult brown dog ticks; assay type: in vivo; conditions: application rate 5 μg/cm2; after 48 h; ticks dead or moribund
Procedure, shortened: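 Test tubes coated with active ingredient in acetone, 5 μg/cm^2 at 900 ppm. 5-10 adult ticks per tube, kept dark at room temperature for 48 h. Ticks then heated at 45-50° C ≤5 min; motionless or uncoordinated ticks scored dead/moribund, efficacy as % dead or moribund.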

Boophilus microplus = Boophilus microplus - injection test; assay type: in vivo; conditions: application rate 20 μg/animal; injection into engorged adult female ticks; after 7 days
Procedure, shortened: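 Active ingredient in DMSO, 1 μl injected into the abdomen of 5 engorged adult female ticks, then held in a climate-controlled room. Efficacy scored after 7 days from laying of fertile eggs, with non-fertile-looking eggs kept about 42 days for larval hatch; 100% means no fertile eggs.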

Tetranychus urticae = Tetranychus urticae - spray test, OP-resistant; assay type: in vivo; conditions: application rate 100 g/ha; bean leaf discs; after 6 days
Procedure, shortened: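 Compound dissolved in acetone/DMF, diluted with water containing 1000 ppm alkylaryl polyglycol ether emulsifier to test concentrations. Bean leaf discs infested with all stages of spider mites were sprayed; % kill determined after 6 days (100% = all mites dead, 0% = none).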

[1] = system: Boophilus microplus Parkhurst strain, SP-resistant; assay: Boophilus microplus - dip test; assay type: in vivo; conditions: application rate 100 ppm; dip of engorged adult female ticks; after 7 days
Procedure, shortened: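 SP-resistant Parkhurst strain engorged adult female Boophilus microplus (8-10 per tube) dipped in DMSO-based compound dilutions in water, then kept in a climate-controlled room. Efficacy scored after 7 days from fertile egg laying, with larval hatch checked after about 42 days; 100% means no fertile eggs.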

Lucilia cuprina = Lucilia cuprina test; assay type: in vivo; conditions: application rate 100 ppm; L1 larvae; after 2 days
Procedure, shortened: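 About 20 L1 larvae placed on minced horsemeat treated with compound, formulated in DMSO and diluted with water to test concentration. Kill in % scored after 2 days (100% = all larvae dead, 0% = none).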

Ctenocephalides felis [2] = assay: Ctenocephalides felis - oral test; assay type: in vivo; conditions: application rate 100 ppm in citrated cattle blood; after 2 days
Procedure, shortened: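 Compound in DMSO diluted into citrated cattle blood, fed through a parafilm membrane to about 20 unfed adult cat fleas. Kill in % scored after 2 days (100% = all dead).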

Ctenocephalides felis [3] = assay: Ctenocephalides felis - in vitro contact tests with adult cat fleas; assay type: in vivo; conditions: application rate 5 μg/cm2 (=500 g/ha); after 48 h; fleas dead or moribund
Procedure, shortened: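 Tubes coated with compound in acetone (250 μl of 900 ppm solution gives 5 μg/cm^2 on 44.7 cm^2), solvent evaporated, then 5–10 adult fleas added and kept horizontal at room temperature and ambient humidity. After 48 h, dead or moribund (motionless/uncoordinated) fleas scored as % efficacy.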

[4] = logP determination by HPLC on a reversed-phase column (C18); assay type: physicochemical; conditions: for logP^a): HPLC-MS method a)
Spodoptera frugiperda = Spodoptera frugiperda - spray test; assay type: in vivo; conditions: application rate 100 g/ha; caterpillars on maize leaf discs; after 7 days
Procedure, shortened: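 Maize leaf discs sprayed with compound formulated in acetone/DMF and diluted in water containing 1000 ppm alkylaryl polyglycol ether emulsifier, then infested with armyworm caterpillars after drying. Efficacy scored after 7 days as % caterpillars killed (100% all, 0% none).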

Amblyomma hebraeum = assay: Amblyomma hebaraeum test (tick nymphs, immersion); assay type: in vivo; conditions: application rate 100 ppm; tick nymphs immersed one minute; after 42 days
Experimental: Solvent: dimethyl sulphoxide
To produce an appropriate active ingredient formulation, 10 mg of active ingredient are mixed with 0.5 ml of dimethyl sulphoxide, and the concentrate is diluted with water to the desired concentration.
Tick nymphs (Amblyomma hebraeum) are placed into perforated plastic beakers and immersed in the desired concentration for one minute. The ticks are transferred on filter paper into a Petri dish and stored in a climate-controlled cabinet.
After 42 days, the kill in % is determined. 100% means that all of the ticks have been killed; 0% means that none of the ticks have been killed.

Musca domestica = Musca domestica test; assay type: in vivo; conditions: application rate 100 ppm; adult houseflies; after 2 days
Procedure, shortened: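 Compound in DMSO, diluted with water, applied to a sugar-solution sponge; vessels hold 10 adult houseflies. Percent mortality scored after 2 days.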

[5] = reversed-phase column (C18), Table I-T3

SMILES: Cc1cc(C(F)(C(F)(F)F)C(F)(F)F)cc(C)c1-n1cc(-c2ccc(Cl)c(C(=O)NC3CC3)c2)cn1 [I-T3-1]
- efficacy (Phaedon cochleariae): 100%
- efficacy (Rhipicephalus sanguineus): 100%
- efficacy (laying of fertile eggs) (Boophilus microplus): 100%
- efficacy (Tetranychus urticae): 100%
- efficacy (laying of fertile eggs) [1]: 100%
- efficacy (kill) (Lucilia cuprina): 100%
- efficacy (kill) (Ctenocephalides felis [2]): 100%
- efficacy (Ctenocephalides felis [3]): 100%
- logP^a) [4]: 4.4
- logP^a) [4, 5]: 4.4
- efficacy (Spodoptera frugiperda): 100%
- efficacy (kill) (Amblyomma hebraeum): 100%
- efficacy (kill) (Musca domestica): 100%

SMILES: O=C(NC1CC1)c1cc(-c2cnn(-c3c(Cl)cc(C(F)(C(F)(F)F)C(F)(F)F)cc3C(F)(F)F)c2)ccc1Cl [I-T3-56]
- efficacy (Phaedon cochleariae): 100%
- efficacy (Rhipicephalus sanguineus): 100%
- efficacy (laying of fertile eggs) (Boophilus microplus): 100%
- efficacy (Tetranychus urticae): 100%
- efficacy (laying of fertile eggs) [1]: 100%
- efficacy (kill) (Lucilia cuprina): 100%
- efficacy (kill) (Ctenocephalides felis [2]): 100%
- efficacy (Ctenocephalides felis [3]): 100%
- logP^a) [4]: 4.4
- logP^a) [4, 5]: 4.4
- efficacy (Spodoptera frugiperda): 100%
- efficacy (kill) (Amblyomma hebraeum): 100%
- efficacy (kill) (Musca domestica): 100%

SMILES: O=C(NC1CC1)c1cc(-c2cnn(-c3c(F)cc(C(F)(C(F)(F)F)C(F)(F)F)cc3F)c2)ccc1Cl [I-T3-61]
- efficacy (Phaedon cochleariae): 100%
- efficacy (Rhipicephalus sanguineus): 100%
- efficacy (laying of fertile eggs) (Boophilus microplus): 100%
- efficacy (Tetranychus urticae): 100%
- efficacy (laying of fertile eggs) [1]: 100%
- efficacy (kill) (Lucilia cuprina): 100%
- efficacy (kill) (Ctenocephalides felis [2]): 100%
- efficacy (Ctenocephalides felis [3]): 100%
- logP^a) [4]: 4.0
- logP^a) [4, 5]: 4.0
- efficacy (Spodoptera frugiperda): 100%
- efficacy (kill) (Amblyomma hebraeum): 80%
- efficacy (kill) (Musca domestica): 100%

SMILES: Cc1cc(C(F)(C(F)(F)F)C(F)(F)F)cc(Cl)c1-n1cc(-c2ccc(Cl)c(C(=O)NC3CC3)c2)cn1 [I-T3-63]
- efficacy (Phaedon cochleariae): 100%
- efficacy (Rhipicephalus sanguineus): 100%
- efficacy (laying of fertile eggs) (Boophilus microplus): 100%
- efficacy (Tetranychus urticae): 100%
- efficacy (laying of fertile eggs) [1]: 100%
- efficacy (kill) (Lucilia cuprina): 100%
- efficacy (kill) (Ctenocephalides felis [2]): 100%
- efficacy (Ctenocephalides felis [3]): 100%
- logP^a) [4]: 4.4
- logP^a) [4, 5]: 4.4
- efficacy (Spodoptera frugiperda): 100%
- efficacy (kill) (Amblyomma hebraeum): 100%
- efficacy (kill) (Musca domestica): 100%

SMILES: CCc1cc(C(F)(C(F)(F)F)C(F)(F)F)cc(Cl)c1-n1cc(-c2ccc(Cl)c(C(=O)NC3(C#N)CC3)c2)cn1 [I-T3-71]
- efficacy (Phaedon cochleariae): 100%
- efficacy (Rhipicephalus sanguineus): 100%
- efficacy (laying of fertile eggs) (Boophilus microplus): 100%
- efficacy (Tetranychus urticae): 90%
- efficacy (laying of fertile eggs) [1]: 100%
- efficacy (kill) (Lucilia cuprina): 100%
- efficacy (kill) (Ctenocephalides felis [2]): 100%
- efficacy (Ctenocephalides felis [3]): 100%
- logP^a) [4]: 4.5
- logP^a) [4, 5]: 4.5
- efficacy (Spodoptera frugiperda): 100%
- efficacy (kill) (Amblyomma hebraeum): 100%
- efficacy (kill) (Musca domestica): 100%

SMILES: O=C(NC1CC1)c1cc(-c2cnn(-c3c(Br)cc(C(F)(C(F)(F)F)C(F)(F)F)cc3C(F)(F)F)c2)ccc1Cl [I-T3-148]
- efficacy (Phaedon cochleariae): 100%
- efficacy (Rhipicephalus sanguineus): 100%
- efficacy (laying of fertile eggs) (Boophilus microplus): 100%
- efficacy (Tetranychus urticae): 90%
- efficacy (laying of fertile eggs) [1]: 100%
- efficacy (kill) (Lucilia cuprina): 100%
- efficacy (kill) (Ctenocephalides felis [2]): 100%
- efficacy (Ctenocephalides felis [3]): 100%
- logP^a) ([4]; reversed-phase column (C18)): 4.5
- log P ([4]; HPLC-MS, reversed-phase column (C18), Table I-T3): 4.5
- efficacy (Spodoptera frugiperda): 100%
- efficacy (kill) (Amblyomma hebraeum): 100%
- efficacy (kill) (Musca domestica): 100%

SMILES: Cc1cc(C(F)(C(F)(F)F)C(F)(F)F)cc(C)c1-c1cnn(-c2cnc(Cl)c(C(=O)NC3(C#N)CC3)c2)c1 [I-T4-4]
- efficacy (Phaedon cochleariae): 100%
- efficacy (Rhipicephalus sanguineus): 100%
- efficacy (laying of fertile eggs) (Boophilus microplus): 100%
- efficacy (Tetranychus urticae): 100%
- efficacy (laying of fertile eggs) [1]: 100%
- efficacy (kill) (Lucilia cuprina): 100%
- efficacy (kill) (Ctenocephalides felis [2]): 100%
- efficacy (Ctenocephalides felis [3]): 100%
- logP ([4]; HPLC, C18 reversed phase, acetonitrile/water with formic acid, EEC Directive 79/831 Annex V.A8): 4.3
- efficacy (Spodoptera frugiperda): 100%
- efficacy (kill) (Amblyomma hebraeum): 100%

Reference: patent publication US10150737B2, “Compounds for controlling arthropods” (priority 2013, dated 2018)
